{
  "source": "patent US20240374646A1",
  "about": "“COMPOSITION FOR INHIBITING INFLAMMATION OR AGING OF STEM CELLS, AND METHOD FOR INHIBITING INFLAMMATION OR AGING BY USING SAME” (MITOIMMUNE THERAPEUTICS INC., priority 2021, published 2024)",
  "type_in_all_cases": "cell-based, human",
  "key": {"mitofusion 2 (MFN2)": {"test_system": "mitofusion 2 (MFN2)", "assay": "Real-time qPCR, mitochondrial dynamics gene MFN2", "conditions": "vs TNF-α/IFN-γ-exposed MSC control (TI); FIG. 2B", "procedure": "(§1) Real-time qPCR was performed using an Easy-Spin Total RNA Kit (iNtRON, Seongnam, Korea) to extract total RNA from hPD-MSCs and RNA concentration was adjusted to 100 ng/μL using a microplate spectrophotometer (Epoch™ Microplate Spectrophotometer, BioTek, Winooski, VT, USA), and the extracted RNA was reverse transcribed into cDNA using RT PreMix (dT20) (Bioneer, Seoul, Korea) using a SimpliAmp Thermal Cycler (Life Technologies, Carlsbad, CA, USA). Real-time qPCR was performed using a real-time PCR machine (CFX Connect, Bio-Rad, Hercules, CA, USA), SYBR Green Supermix (Bio-Rad) and the relevant primers, and all experiments were performed in triplicate for statistical analysis.\nTo investigate mitochondrial dynamics, real-time qPCR was performed to analyze the expression of dynamin-related protein 1 (DRP1), which is a mitochondrial division-related gene, and mitofusion 1 (MFN1) and mitofusion 2 (MFN2), which are […] mitochondrial membrane fusion-related genes. As the real-time qPCR analysis method, the same method described in Experimental Example 1-2 above was used, and the results are shown in FIG. 2B."}, "[1]": {"test_system": "TNF-α/IFN-γ-exposed hPD-MSCs", "assay": "Oxygen consumption rate (OCR), Seahorse XFp Extracellular Flux Analyzer", "procedure": "An oxygen consumption rate was measured to assess a mitochondrial metabolic state using a Seahorse XFp Extracellular Flux Analyzer (Agilent, Santa Clara, CA, USA). A total of 10,000 cells/well were seeded in Seahorse XFp cell culture miniplates and cultured with or without TNF-α, IFN-γ and the example compound for 24 hours prior to analysis. The growth medium was replaced with a Seahorse XF base medium containing 2 mM L-glutamine, 5.5 mM D-glucose, and 1 mM sodium pyruvate according to the composition of α-MEM. Cells were treated with 1 μM oligomycin, 0.5 μM FCCP, and 0.5 μM rotenone/antimycin A during the assay. The OCR was measured for 2 minutes after mixing for 3 minutes, and this process was repeated 12 times. A basal OCR was normalized according to the protein concentration determined by BCA analysis.\nThe OCRs of the untreated MSC control, the TNF-α/IFN-γ-exposed MSC control (TI), and the experimental group treated with the example compound in the TNF-α/IFN-γ-exposed MSC control were measured by the above method, and the results are shown in FIG. 3A.\nThe basal respiration, ATP production amount, proton leakage, and spare respiratory capacity (SRC) for each of the above samples are shown in FIGS. 3B to 3E."}, "[2]": {"test_system": "monocyte chemotactic protein-1 (MCP-1)", "assay": "Real-time qPCR, SASP factor MCP-1", "conditions": "vs MSCs exposed to TNF-α/IFN-γ; FIG. 4C", "procedure": "as §1\nIn the present experiment, the expression of IL-1β, IL-6, and monocyte chemotactic protein-1 (MCP-1), which are SASP-associated factors of the untreated MSC control, the TNF-α/IFN-γ-exposed MSC control (TI), and the experimental group treated with the example compound in the TNF-α/IFN-γ-exposed MSC control was analyzed by real-time qPCR. As the real-time qPCR analysis method, the same method described in Experimental Example 1-2 above was used, and the results are shown in FIGS. 4A to 4C."}},
  "data": [
    {"smiles": "O=S1(=O)CCN(Cc2cc(NC3CCOCC3)c3[nH]c(-c4ccccc4)cc3c2)CC1", "note": "[example compound, 5-[(1,1-dioxido-4-thiomorpholinyl)methyl]-2-phenyl-N-(tetrahydro-2H-pyran-4-yl)-1H-indole-7-amine]", "values": [
      {"measurement": "reduction of MFN2 expression", "setting": "mitofusion 2 (MFN2)", "value": "~50", "unit": "%"},
      {"measurement": "spare respiratory capacity (SRC)", "setting": "[1]; TNF-α/IFN-γ-exposed MSC control treated with compound, FIG. 3E", "value": "almost the same value as the untreated MSC control"},
      {"measurement": "oxygen consumption rate (OCR)", "setting": "[1]; TNF-α/IFN-γ-exposed MSCs, 24 hours, FIG. 3A", "value": "restored TNF-α/IFN-γ-exposed MSCs to quiescence"},
      {"measurement": "decrease of basal respiration", "setting": "[1]; vs TNF-α/IFN-γ-exposed MSC control (TI), FIG. 3B", "value": "about 80 pmol/min/cell"},
      {"measurement": "downregulation of oxygen consumption amount for ATP production", "setting": "[1]; vs TNF-α/IFN-γ-exposed MSC control (TI), FIG. 3C", "value": "about 70 pmol/min/cell"},
      {"measurement": "decrease of MCP-1 expression", "setting": "[2]", "value": "~15", "unit": "%"}
    ]}
  ]
}
